The values that follow come from US20240317777A1, “NOVEL MACROCYCLIC AMINOPYRAZOLE COMPOUNDS AS CDK2 INHIBITORS” (Accutar Biotechnology Inc., priority 2023, published 2024).

pIC50: −log10 of the molar value. Some results are limits rather than exact numbers.

Common to all, as to assay type: cell-based
In assay [1] the test system is Phospho-Rb (Ser807/811) in OVCAR3 cells. Description: Phospho-Rb expression inhibition in OVCAR3 cells quantified by In Cell Western. The settings on record: Homo sapiens, OVCAR-3, 24 hours, read-out: OVCAR-3 pRb IC50. The protocol: Phospho-Rb Expression Inhibition in OVCAR3 Cells Quantified by in Cell Western
OVCAR3 cells were obtained from American Type Culture Collection (ATCC, HTB-161). OVCAR3 cells were plated in 96-well plates (VWR #10062-900, or Corning #3904) in 90 uL culture medium at a density of 20,000 cells/well in the RPM11640 growth medium containing 10% FBS and 1% Penicillin Streptomycin, and then incubated at 37° C. overnight. The following day, the test compound was administered to the cells by using 1000× compound stock solution prepared in DMSO at various concentrations. 1000× compound stock solution was first diluted in culturing medium to 10x, then 10 uL compound medium was added to each well in the cell plates. After administration of the compound, the cells were then incubated at 37° C. for 24 hours. Upon completion, the cells were washed with PBS briefly. 150 uL/well of 4% formaldehyde was added and the plates were incubated at room temperature for 20 mins. The cells were washed with PBS briefly, and permeabilized with 150 uL/well of ice cold 100% methanol for 10 mins. The cells were washed with PBS briefly and blocked with 100 uL/well LI-COR blocking buffer for 1 hr at room temperature with gentle shaking. The cells were incubated overnight at 4° C. with 50 uL primary antibody rabbit anti-Phospho-Rb (Ser807/811) (1:500, Cell Signaling, #8516) and anti-Rb (1:200, Santa Cruz, sc-73598) diluted in Intercept Blocking Buffer (LI-COR, #927-60001) containing 0.1% Tween 20. The next day, the cells were washed with 200 uL PBS containing 0.1% Tween 20, 5×5 mins at room temperature with gentle shaking, and incubated with 50 uL secondary antibody, IRDye® 800CW Goat anti-Rabbit IgG (1:1000, LI-COR, #926-32211) and IRDye® 680RD Goat anti-Mouse IgG (1:1000, LI-COR, #926-68070), in LI-COR blocking buffer with 0.2% Tween 20 for 1 hr at room temperature with gentle shaking. The cells were washed with 200 uL PBS containing 0.1% Tween 20, 5×5 mins at room temperature with gentle shaking. The cells were washed with PBS for 5 mins. 100 uL fresh PBS was added to each well and the plates were imaged on a LI-COR Odyssey CLX plate reader.

Assay [2] deals with CCNE1-amplified OVCAR3 cells. Description: Cell growth inhibition of CCNE1-amplified OVCAR3 cells (CellTiter-Glo). As to conditions: Homo sapiens, OVCAR-3, 144 h, 6 days. The protocol:
Cell Growth Inhibition of CCNE1-Amplified OVCAR3 Cells
(§1) OVCAR3 cells were seeded in 96-well plates at 2000 cells/well in 90 μl of RPM11640 growth medium containing 10% FBS and 1% Penicillin Streptomycin, and then incubated at 37° C. overnight. The following day, the test compound was administered to the cells by using 1000× compound stock solution prepared in DMSO at various concentrations. 1000× compound stock solution was first diluted in culturing medium to 10x, then 10 uL compound medium was added to each well in the cell plates. After administration of the compound, the cells were then incubated at 37° C. for 6 days. Upon completion, the plates were equilibrated at room temperature for approximately 10 minutes. 100 ul of CellTiter-Glo® Reagent (Promega) was added to each well. The plates were then incubated at room temperature for 10 minutes and luminescence was recorded by EnSpire plate reader (PerkinElmer).

For assay [3], the system named is CCNE1-normal SKOV3 cells. Description: Cell growth inhibition of CCNE1-normal SKOV3 cells (CellTiter-Glo). As to conditions: Homo sapiens, SK-OV-3, 144 h, 6 days. The protocol:
Cell Growth Inhibition of CCNE1-Normal SKOV3 Cells
as §1, with “SKOV3 cells were obtained from American Type Culture Collection (ATCC, HTB-77). SKOV3” for “OVCAR3”, “1000” for “2000”

Take `O=C1NCCCOC2(CC2)c2cc(ccn2)Nc2cc([nH]n2)[C@H]2CC[C@H](C2)O1` [Compound 26, (1'S,3′R,Z)-spiro[cyclopropane-1,5′-6,12-dioxa-3,10-diaza-4(4,2)-pyridina-2(3,5)-pyrazola-1(1,3)-cyclopentanacyclododecaphan]-11′-one]: the pIC50 in assay [1] is 7.30 to 8.00; in assay [2] it was 7.30 to 8.00; in assay [3] it was 5.90 to 6.60.
Take `O=C1NC2(CCCOc3cc(ccn3)Nc3cc([nH]n3)[C@H]3CC[C@H](C3)O1)CC2` [Compound 33, (1'S,3′R,Z)-spiro[cyclopropane-1 9′-5,12-dioxa-3,10-diaza-4(4,2)-pyridina-2(3,5)-pyrazola-1(1,3)-cyclopentanacyclododecaphan]-11′-one]: the pIC50 in assay [1] is 7.30 to 8.00; in assay [2], 6.60 to 7.30; in assay [3] it was less than 5.90.
Consider `O=C1NC23CC(CCCc4cc(cc(C(F)F)n4)Nc4cc(n[nH]4)[C@H]4CC[C@H](C4)O1)(C2)C3` [Compound 98, (1^1S,1^3R,Z)-4^6-(difluoromethyl)-2^1H-11-oxa-3,9-diaza-4(4,2)-pyridina-2(3,5)-pyrazola-8(1,3)-bicyclo[1.1.1]pentana-1(1,3)-cyclopentanacycloundecaphan-10-one], for which the values for the pIC50 in assay [1], in assay [2] and in assay [3] were no less than 8.70, no less than 8.70 and 7.30 to 8.00, respectively.
For the compound `C[C@H]1CCC(C)(C)NC(=O)O[C@@H]2CC[C@@H](C2)c2cc([nH]n2)Nc2ccnc(c2)O1` [Compound 113, (1^1S,1^3R,6S,Z)-6,9,9-trimethyl-2^1H-5,12-dioxa-3,10-diaza-4(4,2)-pyridina-2(3,5)-pyrazola-1(1,3)-cyclopentanacyclododecaphan-11-one], the pIC50 is no less than 8.70 in assay [1], 8.00 to 8.70 in assay [2] and 7.30 to 8.00 in assay [3].
`O=C1NC23CC(CCCc4cncc(c4)Nc4cc(n[nH]4)[C@H]4CC[C@H](C4)O1)(C2)C3` [Compound 118, (1^1S,1^3R,Z)-2^1H-11-oxa-3,9-diaza-4(3,5)-pyridina-2(3,5)-pyrazola-8(1,3)-bicyclo[1.1.1]pentana-1(1,3)-cyclopentanacycloundecaphan-10-one]: the values for the pIC50 in assay [1], in assay [2] and in assay [3] were no less than 8.70, no less than 8.70 and 7.30 to 8.00, respectively.
As for `C[C@H]1CCC(C)(C)NC(=O)O[C@@H]2CC[C@@H](C2)c2cc([nH]n2)Nc2cncc(c2)O1` [Compound 124, (1^1S,1^3R,6S,Z)-6,9,9-trimethyl-2^1H-5,12-dioxa-3,10-diaza-4(3,5)-pyridina-2(3,5)-pyrazola-1(1,3)-cyclopentanacyclododecaphan-11-one], the pIC50 in assay [1] is no less than 8.70; in assay [2] it was 8.00 to 8.70; in assay [3], 7.30 to 8.00.
With `C[C@@H]1/C=C/COc2cc(ccn2)Nc2cc(n[nH]2)[C@H]2CC[C@H](C2)OC(=O)N1` [Compound 138, (1^1S,1^3R,2^4Z,7E,9R)-9-methyl-2^1H-5,12-dioxa-3,10-diaza-4(4,2)-pyridina-2(3,5)-pyrazola-1(1,3)-cyclopentanacyclododecaphan-7-en-11-one], the values for the pIC50 in assay [1], in assay [2] and in assay [3] were 7.30 to 8.00, 6.60 to 7.30 and less than 5.90, respectively.
On the same counts, the results for `O=C1NC2CC(CCc3cncc(c3)Nc3cc(n[nH]3)[C@H]3CC[C@H](C3)O1)C2` [Compound 141, (1^1S,1^3R,7^1R,7^3R,Z)-2^1H-10-oxa-3,8-diaza-4(3,5)-pyridina-2(3,5)-pyrazola-1(1,3)-cyclopentana-7(1,3)-cyclobutanacyclodecaphan-9-one] are no less than 8.70, 8.00 to 8.70 and 6.60 to 7.30.
In the case of `O=C1NC2(CCCCc3cncc(c3)Nc3cc(n[nH]3)[C@H]3CC[C@H](C3)O1)CC2` [Compound 142, (1′S,3′R,Z)-spiro[cyclopropane-1,9′-12-oxa-3,10-diaza-4(3,5)-pyridina-2(3,5)-pyrazola-1(1,3)-cyclopentanacyclododecaphan]-11′-one], the pIC50 in assay [1] is 8.00 to 8.70; in assay [2], 7.30 to 8.00; in assay [3] it was 5.90 to 6.60.
On the same counts, the results for `C[C@@H]1Oc2cc(ccn2)Nc2cc(n[nH]2)[C@H]2CC[C@H](C2)OC(=O)N[C@H]2C[C@@H]1C2` [Compound 145, (1^1S,1^3R,7^1S,7^3R,6S,Z)-6-methyl-2^1H-5,10-dioxa-3,8-diaza-4(4,2)-pyridina-2(3,5)-pyrazola-1(1,3)-cyclopentana-7(1,3)-cyclobutanacyclodecaphan-9-one] are 6.60 to 7.30, 6.60 to 7.30 and less than 5.90.
For `C[C@H]1Oc2cncc(c2)Nc2cc(n[nH]2)[C@H]2CC[C@H](C2)OC(=O)N[C@H]2C[C@@H]1C2` [Compound 147, (1^1S,1^3R,7^1S,7^3S,6R,Z)-6-methyl-2^1H-5,10-dioxa-3,8-diaza-4(3,5)-pyridina-2(3,5)-pyrazola-1(1,3)-cyclopentana-7(1,3)-cyclobutanacyclodecaphan-9-one] the same measures were 6.60 to 7.30, 6.60 to 7.30 and less than 5.90.
With `C[C@H]1C/C=C\C(F)(F)c2cc(ccn2)Nc2cc(n[nH]2)[C@H]2CC[C@H](C2)OC(=O)N1` [Compound 167, (1^1S,1^3R,2^4Z,9S)-5,5-difluoro-9-methyl-2^1H-12-oxa-3,10-diaza-4(4,2)-pyridina-2(3,5)-pyrazola-1(1,3)-cyclopentanacyclododecaphan-6-en-11-one], the figures for the pIC50 in assay [1], in assay [2] and in assay [3] were 8.00 to 8.70, 7.30 to 8.00 and 5.90 to 6.60, respectively.
On the same counts, the results for `C[C@@H]1C/C=C\C(F)(F)c2cc(ccn2)Nc2cc(n[nH]2)[C@H]2CC[C@H](C2)OC(=O)N1` [Compound 168, (1^1S,1^3R,2^4Z,9R)-5,5-difluoro-9-methyl-2^1H-12-oxa-3,10-diaza-4(4,2)-pyridina-2(3,5)-pyrazola-1(1,3)-cyclopentanacyclododecaphan-6-en-11-one] are 7.30 to 8.00, 6.60 to 7.30 and less than 5.90.
For `O=C1NC2CC(COc3cncc(c3)Nc3cc(n[nH]3)[C@H]3CC[C@H](C3)O1)C2` [Compound 171, (1^1S,1^3R,7^1R,7^3S,Z)-2^1H-5,10-dioxa-3,8-diaza-4(3,5)-pyridina-2(3,5)-pyrazola-1(1,3)-cyclopentana-7(1,3)-cyclobutanacyclodecaphan-9-one] the same measures were no less than 8.70, 8.00 to 8.70 and 5.90 to 6.60.
On the same counts, the results for `C[C@H]1CCCOc2cc(c(F)cn2)Nc2cc(n[nH]2)[C@H]2CC[C@H](C2)OC(=O)N1` [Compound 174, (1^1S,1^3R,9S,Z)-4^5-fluoro-9-methyl-2^1H-5,12-dioxa-3,10-diaza-4(4,2)-pyridina-2(3,5)-pyrazola-1(1,3)-cyclopentanacyclododecaphan-11-one] are 6.60 to 7.30, 6.60 to 7.30 and less than 5.90.
Take `C[C@H]1CCCOc2nccc(c2F)Nc2cc(n[nH]2)[C@H]2CC[C@H](C2)OC(=O)N1` [Compound 176, (1^1S,1^3R,9S,Z)-4^3-fluoro-9-methyl-2^1H-5,12-dioxa-3,10-diaza-4(4,2)-pyridina-2(3,5)-pyrazola-1(1,3)-cyclopentanacyclododecaphan-11-one]: the values for the pIC50 in assay [1], in assay [2] and in assay [3] were 8.00 to 8.70, 7.30 to 8.00 and 5.90 to 6.60, respectively.
